Values quoted from earlier work as cited in patent US20230117831A1, “MULTI-FUNCTIONAL CHIMERIC MOLECULES” (THE BROAD INSTITUTE, INC., priority 2020, published 2023).
“And” between values parts separate entries of the source, which are not always exact repeats. Equal entries are not always repeated. Where two headings read alike, the source gives them in different places.

How the values were obtained:
PKCalpha = PKCalpha (Homo sapiens, UniProt P17252); conditions: cited from earlier work
AurA (AURKA) = target: T1, AurA (AURKA) (Homo sapiens, UniProt O14965); conditions: cited from earlier work
T1 sequence (O14965 1-403): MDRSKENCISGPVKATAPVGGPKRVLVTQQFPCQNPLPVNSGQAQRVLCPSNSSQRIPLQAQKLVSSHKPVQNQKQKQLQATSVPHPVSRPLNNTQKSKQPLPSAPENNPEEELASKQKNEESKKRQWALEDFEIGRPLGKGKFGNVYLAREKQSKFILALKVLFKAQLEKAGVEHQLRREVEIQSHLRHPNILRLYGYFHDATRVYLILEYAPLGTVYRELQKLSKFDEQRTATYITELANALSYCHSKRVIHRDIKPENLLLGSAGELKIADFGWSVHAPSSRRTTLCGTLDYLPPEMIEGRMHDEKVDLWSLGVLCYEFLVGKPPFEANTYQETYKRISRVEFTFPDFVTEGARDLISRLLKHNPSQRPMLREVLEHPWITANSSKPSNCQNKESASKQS

AurB (AURKB) = AurB (AURKB) (Homo sapiens, UniProt Q96GD4); conditions: cited from earlier work
PIK3Cα/PIK3R1 = PIK3Cα/PIK3R1 (Homo sapiens, UniProt P42336); conditions: cited from earlier work
PIK3Cγ = PIK3Cγ (Homo sapiens, UniProt P48736); conditions: cited from earlier work
PIK3Cδ/PIK3R1 = PIK3Cδ/PIK3R1 (Homo sapiens, UniProt O00329); conditions: cited from earlier work
PKC delta = PKC delta (Homo sapiens, UniProt Q05655); conditions: PKC delta; read-out: Kd; cited from earlier work
PKC epsilon = target: T2, PKC epsilon (Homo sapiens, UniProt Q02156); conditions: PKC epsilon; read-out: Kd; cited from earlier work
T2 sequence (Q02156 1-737): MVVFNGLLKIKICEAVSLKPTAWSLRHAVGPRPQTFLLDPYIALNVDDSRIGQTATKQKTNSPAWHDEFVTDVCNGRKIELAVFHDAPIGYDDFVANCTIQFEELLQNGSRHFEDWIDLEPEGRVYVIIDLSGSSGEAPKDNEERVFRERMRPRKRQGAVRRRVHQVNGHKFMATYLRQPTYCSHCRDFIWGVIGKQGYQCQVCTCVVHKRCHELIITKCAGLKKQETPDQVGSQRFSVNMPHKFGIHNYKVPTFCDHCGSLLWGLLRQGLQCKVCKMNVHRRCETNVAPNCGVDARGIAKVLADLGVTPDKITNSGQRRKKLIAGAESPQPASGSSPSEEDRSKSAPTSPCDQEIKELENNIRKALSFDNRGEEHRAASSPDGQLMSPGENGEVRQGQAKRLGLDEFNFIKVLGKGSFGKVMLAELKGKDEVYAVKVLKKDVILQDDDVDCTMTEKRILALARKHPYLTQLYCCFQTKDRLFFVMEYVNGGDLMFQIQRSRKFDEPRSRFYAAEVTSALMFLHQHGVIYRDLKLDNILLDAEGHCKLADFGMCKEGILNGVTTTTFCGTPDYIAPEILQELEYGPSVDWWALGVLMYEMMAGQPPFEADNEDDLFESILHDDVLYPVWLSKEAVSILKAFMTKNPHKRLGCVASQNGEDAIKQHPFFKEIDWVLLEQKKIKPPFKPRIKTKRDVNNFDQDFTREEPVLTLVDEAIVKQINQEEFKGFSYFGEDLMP

PKC beta = PKC beta (Homo sapiens, UniProt P05771); conditions: PKC beta; read-out: Kd; cited from earlier work
PKC gamma = PKC gamma (Homo sapiens, UniProt P05129); conditions: cited from earlier work

Sequence of PKC delta (Q05655 whole entry): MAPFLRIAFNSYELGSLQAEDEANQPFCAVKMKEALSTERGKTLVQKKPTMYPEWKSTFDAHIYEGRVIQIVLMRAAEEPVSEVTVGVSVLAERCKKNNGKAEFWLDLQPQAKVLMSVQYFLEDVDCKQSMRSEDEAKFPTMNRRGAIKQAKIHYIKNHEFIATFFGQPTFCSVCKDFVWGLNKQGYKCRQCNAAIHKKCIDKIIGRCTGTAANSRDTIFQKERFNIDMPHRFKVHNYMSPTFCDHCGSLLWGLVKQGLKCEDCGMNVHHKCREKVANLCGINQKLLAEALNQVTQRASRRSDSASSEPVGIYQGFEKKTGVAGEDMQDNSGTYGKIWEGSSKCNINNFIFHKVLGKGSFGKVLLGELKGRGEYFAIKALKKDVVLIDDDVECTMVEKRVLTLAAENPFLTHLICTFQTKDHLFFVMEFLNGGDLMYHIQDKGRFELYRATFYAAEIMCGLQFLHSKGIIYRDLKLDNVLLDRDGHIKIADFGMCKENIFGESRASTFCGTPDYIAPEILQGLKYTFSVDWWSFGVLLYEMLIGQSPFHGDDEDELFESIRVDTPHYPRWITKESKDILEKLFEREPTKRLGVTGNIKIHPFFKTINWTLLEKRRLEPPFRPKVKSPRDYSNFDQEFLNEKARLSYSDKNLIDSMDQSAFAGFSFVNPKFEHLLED
Sequence of PIK3Cα/PIK3R1 (P42336 whole entry): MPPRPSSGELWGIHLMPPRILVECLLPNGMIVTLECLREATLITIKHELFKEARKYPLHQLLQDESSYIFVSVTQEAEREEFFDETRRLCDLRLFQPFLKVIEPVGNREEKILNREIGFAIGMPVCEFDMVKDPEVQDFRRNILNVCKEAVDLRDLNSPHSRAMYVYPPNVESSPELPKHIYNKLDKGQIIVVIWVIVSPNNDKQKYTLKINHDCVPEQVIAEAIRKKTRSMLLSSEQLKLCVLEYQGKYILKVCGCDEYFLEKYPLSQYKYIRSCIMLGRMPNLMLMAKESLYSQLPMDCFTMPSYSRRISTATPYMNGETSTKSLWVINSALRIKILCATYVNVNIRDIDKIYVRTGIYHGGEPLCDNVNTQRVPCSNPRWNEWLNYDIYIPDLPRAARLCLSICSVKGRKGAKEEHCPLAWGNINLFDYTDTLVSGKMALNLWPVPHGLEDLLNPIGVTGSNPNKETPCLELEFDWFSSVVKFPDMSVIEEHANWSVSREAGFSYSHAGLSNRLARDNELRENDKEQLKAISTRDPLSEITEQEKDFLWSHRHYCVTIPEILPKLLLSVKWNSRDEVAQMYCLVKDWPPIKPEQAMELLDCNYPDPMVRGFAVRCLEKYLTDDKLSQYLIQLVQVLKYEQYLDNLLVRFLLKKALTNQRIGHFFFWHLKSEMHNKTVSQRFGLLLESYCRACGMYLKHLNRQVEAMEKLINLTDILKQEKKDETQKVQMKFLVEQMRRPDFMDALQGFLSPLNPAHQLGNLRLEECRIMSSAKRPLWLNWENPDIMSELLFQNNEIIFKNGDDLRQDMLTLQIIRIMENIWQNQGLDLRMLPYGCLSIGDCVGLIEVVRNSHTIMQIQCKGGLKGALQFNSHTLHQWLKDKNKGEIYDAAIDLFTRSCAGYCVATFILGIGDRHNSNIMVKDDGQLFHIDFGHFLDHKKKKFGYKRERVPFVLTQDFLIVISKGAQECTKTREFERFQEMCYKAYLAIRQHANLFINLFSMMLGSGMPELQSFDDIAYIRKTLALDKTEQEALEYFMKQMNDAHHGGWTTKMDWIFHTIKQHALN
Sequence of PIK3Cα/PIK3R1 (P27986 whole entry partner): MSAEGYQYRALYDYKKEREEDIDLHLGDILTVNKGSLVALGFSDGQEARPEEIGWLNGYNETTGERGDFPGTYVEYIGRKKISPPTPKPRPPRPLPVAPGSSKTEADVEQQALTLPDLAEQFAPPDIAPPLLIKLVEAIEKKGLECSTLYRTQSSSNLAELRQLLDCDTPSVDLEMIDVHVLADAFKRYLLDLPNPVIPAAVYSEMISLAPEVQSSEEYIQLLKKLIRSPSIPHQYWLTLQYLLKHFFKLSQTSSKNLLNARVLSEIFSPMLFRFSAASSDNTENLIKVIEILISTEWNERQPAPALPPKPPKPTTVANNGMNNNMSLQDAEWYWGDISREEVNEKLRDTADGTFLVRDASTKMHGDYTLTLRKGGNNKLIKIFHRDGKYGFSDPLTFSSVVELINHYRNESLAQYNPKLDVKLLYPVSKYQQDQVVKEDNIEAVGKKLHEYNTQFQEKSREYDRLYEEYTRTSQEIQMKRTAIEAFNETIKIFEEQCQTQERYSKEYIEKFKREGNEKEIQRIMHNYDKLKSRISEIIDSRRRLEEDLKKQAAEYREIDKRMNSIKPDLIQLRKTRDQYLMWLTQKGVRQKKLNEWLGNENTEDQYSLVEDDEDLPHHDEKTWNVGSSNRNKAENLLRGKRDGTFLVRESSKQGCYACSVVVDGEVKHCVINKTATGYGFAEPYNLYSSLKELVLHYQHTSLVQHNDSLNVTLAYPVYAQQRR
Sequence of PIK3Cδ/PIK3R1 (O00329 whole entry): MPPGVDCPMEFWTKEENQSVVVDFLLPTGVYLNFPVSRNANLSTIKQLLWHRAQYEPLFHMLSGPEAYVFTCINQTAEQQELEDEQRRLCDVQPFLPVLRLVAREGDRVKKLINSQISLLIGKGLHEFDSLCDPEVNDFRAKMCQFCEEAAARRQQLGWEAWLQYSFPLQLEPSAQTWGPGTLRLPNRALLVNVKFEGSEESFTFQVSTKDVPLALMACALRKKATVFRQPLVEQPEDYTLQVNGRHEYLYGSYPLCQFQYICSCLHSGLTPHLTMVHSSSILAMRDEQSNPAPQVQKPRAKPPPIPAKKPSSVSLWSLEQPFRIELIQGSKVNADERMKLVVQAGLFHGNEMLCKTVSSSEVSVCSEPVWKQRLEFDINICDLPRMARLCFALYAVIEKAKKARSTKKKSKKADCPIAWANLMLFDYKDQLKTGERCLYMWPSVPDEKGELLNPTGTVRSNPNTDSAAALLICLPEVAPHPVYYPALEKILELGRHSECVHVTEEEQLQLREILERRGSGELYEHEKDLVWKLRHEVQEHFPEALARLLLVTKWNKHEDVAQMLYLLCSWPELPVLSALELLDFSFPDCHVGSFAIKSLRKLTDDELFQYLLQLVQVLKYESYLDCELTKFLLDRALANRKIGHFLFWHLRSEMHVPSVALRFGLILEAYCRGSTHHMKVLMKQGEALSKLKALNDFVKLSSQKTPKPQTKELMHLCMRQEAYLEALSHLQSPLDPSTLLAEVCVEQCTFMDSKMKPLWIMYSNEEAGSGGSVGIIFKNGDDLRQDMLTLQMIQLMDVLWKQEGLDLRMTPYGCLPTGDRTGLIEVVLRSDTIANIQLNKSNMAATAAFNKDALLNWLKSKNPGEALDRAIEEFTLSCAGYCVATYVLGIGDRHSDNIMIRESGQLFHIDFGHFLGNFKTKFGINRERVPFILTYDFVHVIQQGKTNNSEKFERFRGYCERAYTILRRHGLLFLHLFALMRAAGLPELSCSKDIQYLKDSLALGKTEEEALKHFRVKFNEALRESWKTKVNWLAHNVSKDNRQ
Sequence of PIK3Cδ/PIK3R1 (P27986 whole entry partner): as the sequence (P27986 whole entry partner) above
Sequence of AurB (AURKB) (Q96GD4 whole entry, species assumed): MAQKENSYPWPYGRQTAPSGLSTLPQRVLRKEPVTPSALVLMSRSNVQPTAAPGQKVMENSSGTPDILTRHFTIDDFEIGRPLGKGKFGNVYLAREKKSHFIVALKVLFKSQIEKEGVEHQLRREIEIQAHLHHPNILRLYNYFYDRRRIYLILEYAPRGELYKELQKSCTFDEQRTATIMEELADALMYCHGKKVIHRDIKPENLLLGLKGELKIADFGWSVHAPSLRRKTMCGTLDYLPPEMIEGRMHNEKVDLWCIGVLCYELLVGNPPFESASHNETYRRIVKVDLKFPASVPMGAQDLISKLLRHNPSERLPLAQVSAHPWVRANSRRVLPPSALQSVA

CC(C)[C@H]1C(=O)N[C@H](CO)Cc2ccc(-c3ccc(NC(=O)OC(C)(C)C)cc3)cc2N1C
Kd (PKCalpha; PKC alpha, read-out: Kd): 31.5 nM

CC(C)[C@H]1C(=O)N[C@H](CO)Cc2ccc(NC(=O)c3ccccc3)cc2N1C
Kd (PKCalpha; PKC alpha, read-out: Kd): 174 nM

CCCCCCCCC#Cc1ccc(-c2ccc3c(c2)C[C@@H](CO)NC(=O)[C@H](C(C)C)N3C)cc1
Kd (PKCalpha; PKC alpha, read-out: Kd): 703 nM

CCCCC#Cc1cccc(C(=O)Nc2ccc3c(c2)N(C)[C@@H](C(C)C)C(=O)NC(CO)C3)c1 (stereo partly shown)
Kd (PKCalpha; PKC alpha, read-out: Kd): 4.1 nM

CC(C)[C@H]1C(=O)N[C@H](CO)Cc2cc(NC(=O)CCCCc3cc(C(F)(F)F)cc(C(F)(F)F)c3)ccc2N1C
Kd (PKCalpha; PKC alpha, read-out: Kd): 7.8 nM

CCCCCCCCc1cccc(C(=O)Nc2ccc3c(c2)N(C)[C@@H](C(C)C)C(=O)NC(CO)C3)c1 (stereo partly shown)
Kd (PKCalpha; PKC alpha, read-out: Kd): 3.2 nM

CC(C)[C@H]1C(=O)NC(CO)Cc2ccc(NC(=O)CCc3ccccc3)cc2N1C (stereo partly shown)
Kd (PKCalpha; PKC alpha, read-out: Kd): 116 nM

Cc1csc(-c2nnc(Nc3ccc(Oc4ncccc4-c4ccnc(N)n4)cc3)c3ccccc23)c1 [AMG900]
ka (AurA (AURKA)): 220000 M⁻¹ s⁻¹
kd (AurA (AURKA)): 0.000261 s⁻¹
log(ka) (AurA (AURKA)): 5.34
log(kd) (AurA (AURKA)): −3.58
Kd (AurB (AURKB)): 0.393 nM
ka (AurB (AURKB)): 58800 M⁻¹ s⁻¹
kd (AurB (AURKB)): 2.31e-05 s⁻¹

O=C(O)[C@]1(Cc2cccc(Nc3nccs3)n2)CC[C@@H](Oc2cccc(Cl)c2F)CC1 [MK5108]
ka (AurA (AURKA)): 3.41e+06 M⁻¹ s⁻¹
kd (AurA (AURKA)): 0.0155 s⁻¹
log(ka) (AurA (AURKA)): 6.53 and 6.56
log(kd) (AurA (AURKA)): −1.81

CCCCC#Cc1ccccc1-c1ccc2c(c1)N(C)[C@@H](C(C)C)C(=O)NC(CO)C2 (stereo partly shown)
Kd (PKCalpha; PKC alpha, read-out: Kd): 3.1 nM

Cn1c(=O)n(-c2ccc(C(C)(C)C#N)cc2)c2c3cc(-c4cnc5ccccc5c4)ccc3ncc21 [Dactolisib]
ka (PIK3Cα/PIK3R1): 2.3e+06 M⁻¹ s⁻¹
kd (PIK3Cα/PIK3R1): 0.0228 s⁻¹
log(ka) (PIK3Cα/PIK3R1): 6.36
log(kd) (PIK3Cα/PIK3R1): −1.64
ka (PIK3Cγ): 589000 M⁻¹ s⁻¹
kd (PIK3Cγ): 0.0433 s⁻¹
log(ka) (PIK3Cγ): 5.77
log(kd) (PIK3Cγ): −1.36
ka (PIK3Cδ/PIK3R1): 1.52e+06 M⁻¹ s⁻¹
kd (PIK3Cδ/PIK3R1): 0.0327 s⁻¹
log(ka) (PIK3Cδ/PIK3R1): 6.16
log(kd) (PIK3Cδ/PIK3R1): −1.49

CCCCc1ccc(C(=O)Nc2ccc3c(c2)N(C)[C@@H](C(C)C)C(=O)NC(CO)C3)cc1 (stereo partly shown)
Kd (PKCalpha; PKC alpha, read-out: Kd): 9.5 nM

CCCCCCCCC#Cc1ccccc1-c1ccc2c(c1)N(C)[C@@H](C(C)C)C(=O)NC(CO)C2 (stereo partly shown)
Kd (PKCalpha; PKC alpha, read-out: Kd): 3.6 nM

CCCCCCCCC#Cc1cccc(-c2ccc3c(c2)C[C@@H](CO)NC(=O)[C@H](C(C)C)N3C)c1
Kd (PKCalpha; PKC alpha, read-out: Kd): 309 nM

Nc1cc(C(F)(F)F)c(-c2cc(N3CCOCC3)nc(N3CCOCC3)n2)cn1 [Buparlisib]
ka (PIK3Cα/PIK3R1): 3.26e+06 M⁻¹ s⁻¹
kd (PIK3Cα/PIK3R1): 0.0209 s⁻¹
log(ka) (PIK3Cα/PIK3R1): 6.51
log(kd) (PIK3Cα/PIK3R1): −1.68

Cc1nc(NC(=O)N2CCC[C@H]2C(N)=O)sc1-c1ccnc(C(C)(C)C(F)(F)F)c1 [Alpelisib]
ka (PIK3Cγ): 4.05e+06 M⁻¹ s⁻¹
kd (PIK3Cγ): 0.0395 s⁻¹
log(ka) (PIK3Cγ): 6.61
log(kd) (PIK3Cγ): −1.40
ka (PIK3Cδ/PIK3R1): 6.16e+06 M⁻¹ s⁻¹
kd (PIK3Cδ/PIK3R1): 0.0641 s⁻¹
log(ka) (PIK3Cδ/PIK3R1): 6.79
log(kd) (PIK3Cδ/PIK3R1): −1.19

CCCCCCCCC#Cc1cccc(-c2ccc3c(c2)N(C)[C@@H](C(C)C)C(=O)N[C@H](CO)C3)c1
Kd (PKCalpha; PKC alpha, read-out: Kd): 5.9 nM

CCCCCCCCC#Cc1cccc2c1C[C@@H](CO)NC(=O)[C@H](C(C)C)N2C
Kd (PKCalpha; PKC alpha, read-out: Kd): 4530 nM
Kd (PKC delta): 2100 nM
Kd (PKC epsilon): 2560 nM
Kd (PKC beta): 1690 nM
Kd (PKC gamma; PKC gamma, read-out: Kd): > 10000 nM

CC(C)[C@H]1C(=O)N[C@H](CO)Cc2ccccc2N1C
Kd (PKCalpha; PKC alpha, read-out: Kd): 334 nM

CC(C)[C@H]1C(=O)N[C@H](CO)Cc2ccc(NC(=O)/C=C/c3ccccc3)cc2N1C
Kd (PKCalpha; PKC alpha, read-out: Kd): 114 nM

CC(C)[C@H]1C(=O)N[C@H](CO)Cc2cc(NC(=O)CCCCc3ccc(CCC(F)(F)C(F)(F)C(F)(F)C(F)(F)C(F)(F)C(F)(F)F)cc3)ccc2N1C
Kd (PKCalpha; PKC alpha, read-out: Kd): 9.2 nM

CC(C)[C@H]1C(=O)N[C@H](CO)Cc2ccc(NC(=O)/C=C/C=C/c3ccccc3)cc2N1C
Kd (PKCalpha; PKC alpha, read-out: Kd): 49.8 nM

CCCCCCCCC#Cc1ccc(-c2ccc3c(c2)N(C)[C@@H](C(C)C)C(=O)N[C@H](CO)C3)s1
Kd (PKCalpha; PKC alpha, read-out: Kd): 25 nM

CC(C)[C@H]1C(=O)N[C@H](CO)Cc2cc(NC(=O)CCCCc3ccccc3)ccc2N1C
Kd (PKCalpha; PKC alpha, read-out: Kd): 34.2 nM

CC(C)[C@H]1C(=O)NC(CO)Cc2ccc(NCc3ccccc3)cc2N1C (stereo partly shown)
Kd (PKCalpha; PKC alpha, read-out: Kd): 3.8 nM

CCn1cc(-c2ccnc3[nH]c(-c4cccc(CN(C)C)c4)cc23)c(-c2ccc(NC(=O)N(C)C)cc2)n1 [GSK1070916]
Kd (AurB (AURKB)): 4.48 nM
ka (AurB (AURKB)): 14000 M⁻¹ s⁻¹
kd (AurB (AURKB)): 6.28e-05 s⁻¹

CCCCCCCCCCc1ccc2c(c1)C[C@@H](CO)NC(=O)[C@H](C(C)C)N2C
Kd (PKCalpha): 46.6 nM
Kd (PKC delta): 185 nM
Kd (PKC epsilon): 187 nM
Kd (PKC beta): 58.2 nM
Kd (PKC gamma): 140 nM

CCCCC#Cc1cccc(-c2ccc3c(c2)N(C)[C@@H](C(C)C)C(=O)N[C@H](CO)C3)c1
Kd (PKCalpha; PKC alpha, read-out: Kd): 3 nM

CC(C)[C@H]1C(=O)N[C@H](CO)Cc2cc(NC(=O)CCCCc3ccc(C(F)(F)F)cc3)ccc2N1C
Kd (PKCalpha): 12.5 nM

CC(C)[C@H]1C(=O)N[C@H](CO)Cc2ccc(NC(=O)CCCCc3ccccc3)cc2N1C
Kd (PKCalpha; PKC alpha, read-out: Kd): 18.3 nM

CC(C)[C@H]1C(=O)N[C@H](CO)Cc2cc(NC(=O)CCCCc3ccc(/C=C/C(F)(F)C(F)(F)C(F)(F)C(F)(F)C(F)(F)C(F)(F)F)cc3)ccc2N1C
Kd (PKCalpha; PKC alpha, read-out: Kd): 11.2 nM

CCCCCCCCCCc1cccc2c1C[C@@H](CO)NC(=O)[C@H](C(C)C)N2C
Kd (PKCalpha; PKC alpha, read-out: Kd): 513 nM
Kd (PKC delta): 169 nM
Kd (PKC epsilon): 60 nM
Kd (PKC beta): 309 nM
Kd (PKC gamma; PKC gamma, read-out: Kd): 409 nM

CCCCCCCCc1ccc2c3c(c[nH]c13)CC[C@@H](CO)NC(=O)[C@H](C(C)C)N2C
Kd (PKCalpha; PKC alpha, read-out: Kd): 0.5 nM
Kd (PKC delta): 0.8 nM
Kd (PKC epsilon): 1 nM
Kd (PKC beta): 0.4 nM
Kd (PKC gamma; PKC gamma, read-out: Kd): 1.2 nM

COc1ccc(-c2ccc3c(N4CCOC[C@@H]4C)nc(N4CCOC[C@@H]4C)nc3n2)cc1CO [AZD-8055]
Kd (PIK3Cα/PIK3R1): 9.4 nM
ka (PIK3Cα/PIK3R1): 3.61e+06 M⁻¹ s⁻¹
kd (PIK3Cα/PIK3R1): 0.0339 s⁻¹
log(ka) (PIK3Cα/PIK3R1): 6.56
log(kd) (PIK3Cα/PIK3R1): −1.47
residence time (τ) (PIK3Cα/PIK3R1): 29 s
Kd (PIK3Cγ): 92.5 nM
ka (PIK3Cγ): 1.59e+06 M⁻¹ s⁻¹
kd (PIK3Cγ): 0.147 s⁻¹
log(ka) (PIK3Cγ): 6.20
log(kd) (PIK3Cγ): −0.83
residence time (τ) (PIK3Cγ): 7 s
Kd (PIK3Cδ/PIK3R1): 33.6 nM
ka (PIK3Cδ/PIK3R1): 1.93e+06 M⁻¹ s⁻¹
kd (PIK3Cδ/PIK3R1): 0.065 s⁻¹
log(ka) (PIK3Cδ/PIK3R1): 6.29
log(kd) (PIK3Cδ/PIK3R1): −1.19
residence time (τ) (PIK3Cδ/PIK3R1): 15 s

CO[C@@H](C(=O)N1Cc2n[nH]c(NC(=O)c3ccc(N4CCN(C)CC4)cc3)c2C1)c1ccccc1 [Danusertib]
ka (AurA (AURKA)): 512000 M⁻¹ s⁻¹
kd (AurA (AURKA)): 0.000868 s⁻¹
log(ka) (AurA (AURKA)): 5.71
log(kd) (AurA (AURKA)): −3.06

CC(C)C1C(=O)NC(CO)Cc2cc(NC(=O)C=CC=Cc3ccccc3)ccc2N1C (stereo not shown)
Kd (PKCalpha; PKC alpha, read-out: Kd): 15.8 nM

CC(C)[C@H]1C(=O)NC(CO)Cc2ccc(NC(=O)c3ccc(-c4ccccc4)cc3)cc2N1C (stereo partly shown)
Kd (PKCalpha; PKC alpha, read-out: Kd): 25.9 nM

CCCCCCCCC#Cc1ccc(-c2ccc3c(c2)C[C@@H](CO)NC(=O)[C@H](C(C)C)N3C)s1
Kd (PKCalpha; PKC alpha, read-out: Kd): 396 nM
